Results published in patent publication US12419890B2, “Administration of sumo-activating enzyme inhibitor and checkpoint inhibitors” (Takeda Pharmaceutical Company Limited, priority 2019, dated 2025).

Assays:
[1] = tested on: CT26 syngeneic mouse colon fibroblast carcinoma-derived subcutaneous tumor; experiment: CT26 Study 2: mouse CT26 syngeneic tumor model, individual tumor volume; format: in vivo; settings: Compound I-263a 7.5 mg/kg IV and anti-mPD-1 10 mg/kg IP, Day 0, 3, 7, 10, 14; 9 tumors/group
Description: CT26 Study 2: CT26 is a mouse colon fibroblast carcinoma cell line. CT26 mouse syngeneic tumor model was generated by subcutaneous inoculation with 0.2×10^6 CT-26 cells (cell suspension) in 10 weeks old female BALB/c mice (Vital River Laboratory Animal Technology Co., Ltd., Beijing, China) in the flank. When the mean tumor volume reached approximately 40 mm^3, the animals were randomized into one vehicle control and three treatment groups (n=9/group). Mice were then dosed with 20% HPbCD or Compound I-263a or anti-mouse PD-1 antibody over a 14-day period. Tumor growth and body weight were measured twice per week during the treatment and post-treatment periods, and mice were humanely euthanized once they had reached their humane endpoint.
Study 2: A 0.75 mg/mL stock solution of Compound I-263a was formulated weekly in 20% HPβCD and administered intravenously (IV) based on exact animal body weight on each day of treatment, using a dosing volume of 10 mL/kg body weight. Final doses received were 7.5 mg/kg. Dosing volume for Compound I-263a was 0.2 mL. […]
Tumors were measured twice weekly using vernier calipers. Tumor volumes were calculated using standard equation: V=W^2×L/2, where V=volume, W=width, and L=length for the tumor. […] Tumor size and body weight were measured twice a week for the duration of the study. […]

[2] = target: T1, SUMO-activating enzyme (Homo sapiens, UniProt Q9UBT2); experiment: biochemical assays of SUMO-activating enzyme
T1 sequence (Q9UBT2 1-640): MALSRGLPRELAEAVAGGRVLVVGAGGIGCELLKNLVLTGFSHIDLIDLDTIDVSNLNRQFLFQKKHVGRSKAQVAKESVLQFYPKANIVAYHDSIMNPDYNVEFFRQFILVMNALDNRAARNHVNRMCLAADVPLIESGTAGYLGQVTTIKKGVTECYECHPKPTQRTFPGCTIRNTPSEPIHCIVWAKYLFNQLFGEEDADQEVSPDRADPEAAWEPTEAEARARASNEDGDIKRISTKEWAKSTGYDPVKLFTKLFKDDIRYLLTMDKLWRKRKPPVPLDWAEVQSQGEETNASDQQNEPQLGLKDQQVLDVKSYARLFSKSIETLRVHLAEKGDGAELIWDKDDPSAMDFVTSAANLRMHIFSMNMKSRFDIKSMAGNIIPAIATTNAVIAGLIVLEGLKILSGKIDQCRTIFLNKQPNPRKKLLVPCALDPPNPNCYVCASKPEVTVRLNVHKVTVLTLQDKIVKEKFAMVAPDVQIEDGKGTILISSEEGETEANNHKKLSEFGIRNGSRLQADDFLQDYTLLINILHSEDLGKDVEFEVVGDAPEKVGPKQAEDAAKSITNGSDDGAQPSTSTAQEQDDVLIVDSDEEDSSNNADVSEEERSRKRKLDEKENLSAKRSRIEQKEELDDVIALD
T1 sequence (Q9UBE0 1-346 partner): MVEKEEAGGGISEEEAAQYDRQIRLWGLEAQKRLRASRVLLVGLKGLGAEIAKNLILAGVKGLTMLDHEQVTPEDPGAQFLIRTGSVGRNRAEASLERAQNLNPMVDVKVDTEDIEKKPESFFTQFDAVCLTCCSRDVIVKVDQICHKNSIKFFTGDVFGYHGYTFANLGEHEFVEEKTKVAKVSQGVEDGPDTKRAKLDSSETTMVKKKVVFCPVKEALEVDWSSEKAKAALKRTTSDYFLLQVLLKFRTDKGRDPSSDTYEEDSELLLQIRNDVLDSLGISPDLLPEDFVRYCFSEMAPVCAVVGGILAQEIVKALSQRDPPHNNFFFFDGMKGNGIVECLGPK
Text: SAE inhibitors, as disclosed herein, are described, for example, in US 2016/0009744 and U.S. Pat. No. 9,695,154. They may be prepared by methods known to one skilled in the art and/or according to the methods described in US 2016/0009744 and U.S. Pat. No. 9,695,154, which is hereby incorporated by reference in its entirety. Central to the mechanism of action of useful SAE inhibitors, such as Compound I-263a, in combinations and methods of the present disclosure is production of type 1 IFNs and induction of an innate immune response with activation of dendritic cells, natural killer (NK) cells and macrophages.

## Cc1sc(C(=O)c2cncnc2N[C@@H]2C[C@H](COS(N)(=O)=O)[C@@H](O)C2)cc1[C@@H]1NCCc2ccc(Cl)cc21 [Compound I-263a, [(1R,2S,4R)-4-{[5-({4-[(1R)-7-chloro-1,2,3,4-tetrahydroisoquinolin-1-yl]-5-methyl-2-thienyl}carbonyl)pyrimidin-4-yl]amino}-2-hydroxycyclopentyl]methyl sulfamate]
[1]
  tumor growth inhibition relative to vehicle-treated tumors: did not show any tumor growth inhibition
[2]; mechanism-based inhibitor forming a covalent adduct with SUMO
  inhibition of SUMO-activating enzyme activity: potently inhibits enzyme activity
[2]; over ubiquitin-activating enzymes, Nedd8-activating enzyme, and autophagy related 7 enzyme
  selectivity for SUMO-activating enzyme: Strong selectivity
